Experimental data reported in patent US20250154105A1, “POLYCYCLIC COMPOUND AND USE THEREOF” (TYK MEDICINES, INC., priority 2021, published 2025).

Tested on: human pleural mesothelioma cells NCI-H226
Experiment: Cell anti-proliferation experiment (CCK8), NCI-H226
Assay type: cell-based
Method in brief: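 Viability was measured by CCK-8 (3 h, A450) after 3-day treatment with 0.15–333.33 nM compound in 0.1% DMSO medium. Curve-fitted IC50 was based on viability normalised to no-drug and cell-free controls.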

Row | SMILES | IC50 [nM]
1 | C[C@H](NC(=O)c1ccc2c(c1)c1cnccc1c(=O)n2-c1ccc(C(F)(F)F)cc1)c1ccccn1 [Example T-253] | ≤ 1000
2 | C[C@H](NC(=O)c1ccc2c(c1)c1nn(C)cc1c(=O)n2-c1ccc(C(F)(F)F)cc1)c1ccccn1 [Example T-105] | ≤ 1000
3 | CNS(=O)(=O)c1ccc2c(c1)c1cn(C)nc1c(=O)n2-c1ccc(C(F)(F)F)cc1 [Example T-32] | ≤ 1000

The remaining lines, values ahead:

Row | IC50 [nM] | SMILES
4 | ≤ 1000 | C[C@H](NC(=O)c1ccc2c(c1)c1ccccc1c(=O)n2-c1ccc(C(F)(F)F)cc1)c1ccccn1 [Example T-272]
5 | ≤ 1000 | Cc1cc(=O)n(-c2ccc(C(F)(F)F)cc2)c2ccc(C(=O)N[C@@H](C)c3ccccn3)cc12 [Example T-277]
